These compounds were tested against human α7 receptor (Homo sapiens, UniProt P36544) (assay: α7 NNR flux assay (FDSS Ca assay)). Conditions: positive allosteric modulation; rat GH4C1 cell line stably expressing human α7; acetylcholine 20 μM; % modulation relative to PNU-120596 set to 100%.
Chain of human α7 receptor (P36544 23-502): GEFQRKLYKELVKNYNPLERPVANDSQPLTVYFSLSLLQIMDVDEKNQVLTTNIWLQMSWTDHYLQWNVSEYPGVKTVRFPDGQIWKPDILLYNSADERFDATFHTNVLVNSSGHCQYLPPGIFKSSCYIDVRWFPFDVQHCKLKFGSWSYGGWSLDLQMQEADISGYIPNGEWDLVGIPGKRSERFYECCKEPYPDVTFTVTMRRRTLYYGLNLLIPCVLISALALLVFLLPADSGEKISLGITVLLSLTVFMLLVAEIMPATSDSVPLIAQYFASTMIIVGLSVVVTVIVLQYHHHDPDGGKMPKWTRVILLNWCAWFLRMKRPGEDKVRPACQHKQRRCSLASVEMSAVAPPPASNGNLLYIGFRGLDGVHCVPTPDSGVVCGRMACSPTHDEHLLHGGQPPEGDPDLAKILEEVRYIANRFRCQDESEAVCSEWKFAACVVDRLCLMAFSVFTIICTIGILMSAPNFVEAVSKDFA
Format: cell-based
Procedure: In this version of the assay, the human α7 receptor is stably expressed in the rat GH4C1 cell line. The assay was used to identify positive allosteric modulators (PAMs) of the α7 receptor. Activation of the channel was measured by loading cells with the calcium-sensitive fluorescent dye Calcium-4 (Assay kit from Molecular Devices), and then measuring real-time changes in fluorescence upon treatment with test compounds.
The cell line ChanClone GH4C1-nAChRalpha7 from Genionics was seeded from frozen stock in 384-well plates in culture media 2-3 days before experiment to form an approximately 80% confluent layer on the day of experiment.
The cell culture were split into “22.5 cm×22.5 cm”-plates with approximately 100×10^3 cells/cm^2. After four days incubation in a humidified incubator at 37° C. and 5% CO2, it had grown to an 80-90% confluent layer, and the cells were harvested.
Two or three days before the experiment the cells were seeded in 384 well plates from Greiner bio-one (781946, CELLCOAT, Poly-D-Lysine, black, μClear).
The cells were seeded in 384 well plates with 30 μL/well (30000 cells/well) while stirring the cell suspension or otherwise preventing the cells from precipitating. The plates were incubated at room temperature for 30-45 minutes. The plates were placed in incubator for two days (37° C. and 5% CO2).
The loading buffer was 5% v/v Calcium-4 Kit and 2.5 mM Probenecid in assay buffer.
Culture media were removed from the cell plates and 20 μL loading buffer was added in each well. The cell plates were placed in trays and incubated 90 minutes in the incubator (37° C.). Thereafter the plates were incubated 30 minutes at room temperature, still protected from light. Now the cell plates were ready to run in the Functional Drug Screening System (FDSS) The assay buffer was HBSS with 20 mM HEPES, pH 7.4 and 3 mM CaCl2.
200 nL 10 mM compound solution in DMSO was diluted in 50 μL assay buffer. The final test concentrations in the cell plates were 20-10-5-2.5-1.25-0.625-0.312-0.156-0.078-0.039 μM. Assay buffer and 3 μM PNU-120596 were used for control:
The agonist acetylcholine was added to a final concentration of 20 μM (˜EC100). In the FDSS7000 the Ex480-Em540 was measured with 1 second intervals. The baseline was made of 5 frames before addition of test compounds, and 95 frames more were made before addition of acetylcholine. The measurement stopped 30 frames after the 2nd addition. Raw data for each well were collected as “the maximum fluorescence count” in the interval 100-131 seconds and as “the average fluorescence count” in the interval 96-100 seconds. The positive allosteric modulation in the 2nd addition was the enhancement of agonist response with test compound compared to agonist alone.
Results were calculated as % modulation of test compound compared to the reference PNU-120596 set to 100%.
In the case of Cc1cc(C(=O)NCc2ccc3c(c2)cc(C)n3C(F)(F)F)on1 [Compound 84, 3-methyl-N-[[2-methyl-1-(trifluoromethyl)indol-5-yl]methyl]isoxazole-5-carboxamide], the EC50 is reported as 6 µM.
Work on Cc1cc2cc(CNC(=O)c3cc(CC(F)(F)F)no3)ccc2n1C(F)(F)F [Compound 85, N-[[2-methyl-1-(trifluoromethyl)indol-5-yl]methyl]-3-(2,2,2-trifluoroethyl)isoxazole-5-carboxamide] yielded an EC50 of 7.7 µM.
Work on Cc1cc2cc(CNC(=O)c3cc(C(C)(C)C)on3)ccc2[nH]1 [Compound 87, 5-tert-butyl-N-[(2-methyl-1H-indol-5-yl)methyl]isoxazole-3-carboxamide] yielded an EC50 of 2.6 µM.
For Cn1c(C(F)(F)F)cc2cc(CNC(=O)c3cnn(CC(F)(F)F)c3)ccc21 [Compound 88, N-[[1-methyl-2-(trifluoromethyl)indol-5-yl]methyl]-1-(2,2,2-trifluoroethyl)pyrazole-4-carboxamide], the EC50 was 6.2 µM.
For Cc1cc(C(=O)NCc2ccc3c(c2)cc(C(F)(F)F)n3C)on1 [Compound 89, 3-methyl-N-[[1-methyl-2-(trifluoromethyl)indol-5-yl]methyl]isoxazole-5-carboxamide], the EC50 was 5.6 µM.
Compound Cn1c(C(F)(F)F)cc2cc(CNC(=O)c3cc(CC(F)(F)F)no3)ccc21 [Compound 90, N-[[1-methyl-2-(trifluoromethyl)indol-5-yl]methyl]-3-(2,2,2-trifluoroethyl)isoxazole-5-carboxamide] has an EC50 of 5 µM.
Work on O=C(NCc1ccc2[nH]c(C(F)F)cc2c1)c1cnn(CC(F)(F)F)c1 [Compound 91, N-[[2-(difluoromethyl)-1H-indol-5-yl]methyl]-1-(2,2,2-trifluoroethyl)pyrazole-4-carboxamide] yielded an EC50 of 1.7 µM.
For Cc1cc(C(=O)NCc2ccc3[nH]c(C(F)F)cc3c2)on1 [Compound 92, N-[[2-(difluoromethyl)-1H-indol-5-yl]methyl]-3-methyl-isoxazole-5-carboxamide], the EC50 was 8.3 µM.
O=C(NCc1ccc2[nH]c(C(F)F)cc2c1)c1cc(CC(F)(F)F)no1 [Compound 93, N-[[2-(difluoromethyl)-1H-indol-5-yl]methyl]-3-(2,2,2-trifluoroethyl)isoxazole-5-carboxamide] gave an EC50 of 5.4 µM.
With Cc1cc2cc(CNC(=O)c3ccn(CCF)n3)ccc2[nH]1 [Compound 94, 1-(2-fluoroethyl)-N-[(2-methyl-1H-indol-5-yl)methyl]pyrazole-3-carboxamide] the EC50 was 9.5 µM.
COCCn1ccc(C(=O)NCc2ccc3[nH]c(C)cc3c2)n1 [Compound 95, 1-(2-methoxyethyl)-N-[(2-methyl-1H-indol-5-yl)methyl]pyrazole-3-carboxamide] gave an EC50 of 7.7 µM.
In the case of COCc1cc(C(=O)NCc2ccc3[nH]c(C)cc3c2)on1 [Compound 98, 3-(methoxymethyl)-N-[(2-methyl-1H-indol-5-yl)methyl]isoxazole-5-carboxamide], the EC50 is reported as 3.5 µM.
Compound Cc1cc2cc(CNC(=O)c3cnn(CCF)c3)ccc2[nH]1 [Compound 99, 1-(2-fluoroethyl)-N-[(2-methyl-1H-indol-5-yl)methyl]pyrazole-4-carboxamide] has an EC50 of 6.4 µM.
With COCCn1cc(C(=O)NCc2ccc3[nH]c(C)cc3c2)cn1 [Compound 100, 1-(2-methoxyethyl)-N-[(2-methyl-1H-indol-5-yl)methyl]pyrazole-4-carboxamide] the EC50 was 8.5 µM.
Work on Cc1[nH]c2ccc(CNC(=O)c3cnn(CC(F)(F)F)c3)cc2c1C [Compound 101, N-[(2,3-dimethyl-1H-indol-5-yl)methyl]-1-(2,2,2-trifluoroethyl)pyrazole-4-carboxamide] yielded an EC50 of 2.9 µM.
Work on Cc1cc(C(=O)N[C@H](C)c2cc3cc(C)[nH]c3cc2F)on1 [Compound 102, N-[(1R)-1-(6-fluoro-2-methyl-1H-indol-5-yl)ethyl]-3-methyl-isoxazole-5-carboxamide] yielded an EC50 of 1 µM.
With Cc1cc(C(=O)N[C@H](C)c2cc3cc[nH]c3c(C)c2F)on1 [Compound 103] the EC50 was 0.33 µM.
Cc1cc(C(=O)NCc2cc3cc(C)[nH]c3cc2F)on1 [Compound 104, N-[(6-fluoro-2-methyl-1H-indol-5-yl)methyl]-3-methyl-isoxazole-5-carboxamide] showed an EC50 of 4.2 µM.
For Cc1cc(C(=O)NCc2cc3cc[nH]c3c(C)c2F)on1 [Compound 105, N-[(6-fluoro-7-methyl-1H-indol-5-yl)methyl]-3-methyl-isoxazole-5-carboxamide], the EC50 was 2.9 µM.
In the case of Cc1cc2cc(CNC(=O)c3cc(CCF)no3)ccc2[nH]1 [Compound 106, 3-(2-fluoroethyl)-N-[(2-methyl-1H-indol-5-yl)methyl]isoxazole-5-carboxamide], the EC50 is reported as 1.7 µM.
In the case of Cc1cc(C(=O)NCc2ccc3[nH]c(C)cc3c2)sn1 [Compound 107, 3-methyl-N-[(2-methyl-1H-indol-5-yl)methyl]isothiazole-5-carboxamide], the EC50 is reported as 0.56 µM.
In the case of Cc1cc(C(=O)NCc2ccc3[nH]c(CC(F)(F)F)cc3c2)on1 [Compound 108, 3-methyl-N-[[2-(2,2,2-trifluoroethyl)-1H-indol-5-yl]methyl]isoxazole-5-carboxamide], the EC50 is reported as 7.7 µM.
With Cc1cc(C(=O)NCc2cc(F)c3[nH]c(C)cc3c2)on1 [Compound 109, N-[(7-fluoro-2-methyl-1H-indol-5-yl)methyl]-3-methyl-isoxazole-5-carboxamide] the EC50 was 3.1 µM.
Cc1cc(C(=O)NCc2ccc3[nH]c(C)cc3c2F)on1 [Compound 110, N-[(4-fluoro-2-methyl-1H-indol-5-yl)methyl]-3-methyl-isoxazole-5-carboxamide] was tested, and the EC50 was 6.5 µM.
Compound Cc1cc(C(=O)N[C@H](C)c2cc(F)c3[nH]c(C)cc3c2)on1 [Compound 111, N-[(1R)-1-(7-fluoro-2-methyl-1H-indol-5-yl)ethyl]-3-methyl-isoxazole-5-carboxamide] has an EC50 of 1.3 µM.
COCc1cc(C(=O)N[C@H](C)c2ccc3[nH]c(C)cc3c2)on1 [Compound 112, 3-(methoxymethyl)-N-[(1R)-1-(2-methyl-1H-indol-5-yl)ethyl]isoxazole-5-carboxamide] was tested, and the EC50 was 1.1 µM.
With Cc1cc2cc([C@@H](C)NC(=O)c3cc(CCF)no3)ccc2[nH]1 [Compound 113, 3-(2-fluoroethyl)-N-[(1R)-1-(2-methyl-1H-indol-5-yl)ethyl]isoxazole-5-carboxamide] the EC50 was 0.79 µM.
In the case of COCc1cc(C(=O)NCc2ccc3[nH]c(C(F)(F)F)cc3c2)on1 [Compound 114, 3-(methoxymethyl)-N-[[2-(trifluoromethyl)-1H-indol-5-yl]methyl]isoxazole-5-carboxamide], the EC50 is reported as 5 µM.
O=C(NCc1ccc2[nH]ccc2c1)c1cc(CCF)no1 [Compound 115, 3-(2-fluoroethyl)-N-(1H-indol-5-ylmethyl)isoxazole-5-carboxamide] showed an EC50 of 4.3 µM.
In the case of Cc1cc2cc(CNC(=O)c3ncc(C)o3)ccc2[nH]1 [Compound 116, 5-methyl-N-[(2-methyl-1H-indol-5-yl)methyl]oxazole-2-carboxamide], the EC50 is reported as 9.9 µM.
Cc1cc2cc(CNC(=O)c3cnn4c3CCC4)ccc2[nH]1 [Compound 117, N-[(2-methyl-1H-indol-5-yl)methyl]-5,6-dihydro-4H-pyrrolo[1,2-b]pyrazole-3-carboxamide] gave an EC50 of 7 µM.
Compound Cc1cc2cc(CNC(=O)c3cc4n(n3)CCC4)ccc2[nH]1 [Compound 118, N-[(2-methyl-1H-indol-5-yl)methyl]-5,5-dihydro-4H-pyrrolo[1,2-b]pyrazole-2-carboxamide] has an EC50 of 7.2 µM.
Cc1noc(C(=O)NCc2ccc3[nH]c(C)cc3c2)n1 [Compound 119, 3-methyl-N-[(2-methyl-1H-indol-5-yl)methyl]-1,2,4-oxadiazole-5-carboxamide] gave an EC50 of 7.1 µM.
With Cc1cc(C(=O)NCc2ccc3[nH]c(C#N)cc3c2)sn1 [Compound 120, N-[(2-cyano-1H-indol-5-yl)-methyl]-3-methyl-isothiazole-5-carboxamide] the EC50 was 3.3 µM.
Cc1cc(C(=O)N[C@H](C)c2ccc3[nH]c(C#N)cc3c2)on1 [Compound 121, N-[(1R)-1-(2-cyano-1H-indol-5-yl)ethyl]-3-methyl-isoxazole-5-carboxamide] showed an EC50 of 4.8 µM.
